“Also recorded” adds a separate entry of the source. Read-outs that look alike come from different tables or passages of the source.
Tests used:
[1] = Phase 1 drug-drug interaction study: single-dose pevonedistat plasma PK in the absence or presence of rifampin; assay type: in vivo, human; details: for AUC(0-t) / AUC(0-inf) / Cmax / clearance / Vd / half-life: human, plasma; for clearance: 50 mg/m2, plasma clearance, read-out: CL geometric mean (CV) (converted); for Vd: read-out: Vss geometric mean (CV); for half-life: read-out: t1/2z mean (SD) (converted)
Description: This was an open-label, multi-center study in adult patients with advanced solid tumors (NCT03486314). Eligible patients received a single 50 mg/m^2 pevonedistat dose via a 1-h infusion on Days 1 and 10, and daily oral dosing of rifampin 600 mg Days 3–11. Serial blood samples for the measurement of pevonedistat plasma concentrations were collected over 48 h following pevonedistat dosing. Pevonedistat PK parameters and ratios of geometric means for maximal plasma concentration (Cmax) and area under the plasma concentration versus time curve from time 0 to infinity (AUC0–inf) were calculated in the presence of rifampin (Day 10) and in reference to the absence of rifampin (Day 1), with associated 90% confidence intervals (CI) estimated using analysis of variance.
Serial blood samples for measuring pevonedistat concentrations were collected at intervals from 0 (predose) to 48 h after the single doses of pevonedistat on Day 1 and Day 10. Plasma samples were analyzed for pevonedistat concentrations using a previously reported validated liquid chromatography/mass spectrometry (LC–MS/MS) assay.
Pevonedistat PK parameters were calculated by noncompartmental analysis of the pevonedistat plasma concentration–time data using Phoenix WinNonlin version 8.1 (Certara, Princeton, NJ). The following single-dose PK parameters were derived: Cmax, AUC0-inf, AUC from time 0 to the last quantifiable concentration (AUC0–last), terminal disposition phase half-life (t1/2), clearance (CL), and volume of distribution at steady state (Vss).
(§1) Pevonedistat PK was assessed in all patients who received the protocol-specified pevonedistat and rifampin doses in Part A, and had sufficient concentration–time data to permit reliable estimation of PK parameters (PK-evaluable population). PK data were summarized using descriptive statistics. For assessment of the effect of rifampin on pevonedistat PK, the ratios of geometric mean Cmax, AUClast and AUCinf of pevonedistat in the presence of rifampin on Day 10 versus in the absence of rifampin on Day 1 and associated 90% CI were calculated based on analysis of variance. Estimates for each PK parameter were obtained using a mixed effects model of log(PK parameter) with fixed terms for the rifampin effect and random terms for patient. Safety was assessed in all patients who received at least one dose of pevonedistat, and TEAEs were coded according to the Medical Dictionary for Regulatory Activities (MedDRA), version 20.0.

[2] = Safety: treatment-emergent adverse events (NCI CTCAE v4.03), safety population; assay type: in vivo, human; details: N=20
Description: Safety was assessed by incidence and severity of treatment-emergent adverse events (TEAEs), vital signs, physical examinations, electrocardiograms, and clinical laboratory tests, and toxicities were graded according to the National Cancer Institute Common Terminology Criteria for Adverse Events (NCI CTCAE), version 4.03.
as §1

[3] = parameters: method as in PMID 33089874; details: following intravenous administration; ref [14]; cited from earlier work
[4] = parameters: method as in PMID 31355467; details: ref [15], cited from earlier work
[5] = parameters: method as in PMID 30845347; details: strong CYP3A/P-glycoprotein inhibitor itraconazole; ref [16]; cited from earlier work
[6] = ref [10]–[13], cited from earlier work
[7] = iv, 50 mg/m2, single 50 mg/m^2 IV, in the absence of rifampin (Day 1), N=20
[8] = iv, 50 mg/m2, single 50 mg/m^2 IV, in the presence of rifampin (Day 10), N=17
[9] = presence of rifampin (Day 10) vs absence (Day 1)
[10] = most common TEAEs (≥ 15% of patients)
[11] = single dose 50 mg/m^2 ± rifampin
[12] = single dose 50 mg/m^2 ± rifampin, listed as Pevonedistat

In the case of `NS(=O)(=O)OC[C@@H]1C[C@@H](n2ccc3c(N[C@H]4CCc5ccccc54)ncnc32)C[C@@H]1O` [pevonedistat, Pevonedistat], the “geometric mean AUClast in the presence of rifampin as % of that in the absence” value ([1]; Day 10 vs Day 1, 90% CI 68.4%–90.1%) is reported as 78.5%, the “geometric mean AUC∞ (AUC0–inf) in the presence of rifampin as % of that in the absence” value ([1]; Day 10 vs Day 1, 90% CI 69.2%–90.2%) is reported as 79% and the “geometric mean Cmax in the presence of rifampin as % of that in the absence” value ([1]; Day 10 vs Day 1, 90% CI 79.2%–117%) is reported as 96.2%. The “decrease in pevonedistat systemic exposure with rifampin” value ([1]; coadministration with rifampin) was “approximately 20%”, the AUC(0-t) ([1]; intravenous, 50 mg/m^2, mixed-effects model, in the absence of rifampin, N=20, read-out: AUClast LS mean) was 2990 ng·h/mL and the AUC(0-inf) ([1]; intravenous, 50 mg/m^2, mixed-effects model, in the absence of rifampin, N=20, read-out: AUC∞ LS mean) was 3030 ng·h/mL. For the same compound, the Cmax ([1]; intravenous, 50 mg/m^2, mixed-effects model, in the absence of rifampin, N=20, read-out: Cmax LS mean) was 602 ng/mL, the AUC(0-t) ([1]; intravenous, mixed-effects model, in the presence of rifampin, N=17, read-out: AUClast LS mean) was 2340 ng·h/mL and the AUC(0-inf) ([1]; intravenous, mixed-effects model, in the presence of rifampin, N=17, read-out: AUC∞ LS mean) was 2390 ng·h/mL. For the same compound, the Cmax ([1]; intravenous, mixed-effects model, in the presence of rifampin, N=17, read-out: Cmax LS mean) was 579 ng/mL, the clearance ([1]; iv, single 50 mg/m^2 IV, in the absence of rifampin (Day 1), N=20) was 550 mL/min and the clearance ([1]; iv, single 50 mg/m^2 IV, in the presence of rifampin (Day 10), N=17) was 692 mL/min. For the same compound, the AUC(0-t) ([1]; iv, 50 mg/m2, single 50 mg/m^2 IV, in the absence of rifampin (Day 1), N=20, read-out: AUClast geometric mean (CV)) was 2990 ng·h/mL, the AUC(0-inf) ([1]; iv, 50 mg/m2, single 50 mg/m^2 IV, in the absence of rifampin (Day 1), N=20, read-out: AUC∞ geometric mean (CV)) was 3030 ng·h/mL and the Vd [1, 7] was 278 L. For the same compound, the half-life [1, 7] was roughly 7 h, the AUC(0-t) ([1]; iv, 50 mg/m2, single 50 mg/m^2 IV, in the presence of rifampin (Day 10), N=17, read-out: AUClast geometric mean (CV)) was 2330 ng·h/mL and the AUC(0-inf) ([1]; iv, 50 mg/m2, single 50 mg/m^2 IV, in the presence of rifampin (Day 10), N=17, read-out: AUC∞ geometric mean (CV)) was 2370 ng·h/mL. For the same compound, the Vd [1, 8] was 265 L, the half-life [1, 8] was 5.7 h and the Cmax ([1]; single 50 mg/m^2 1-h IV infusion, in the absence of rifampin (Day 1), N=20, read-out: Cmax geometric mean (CV)) was 602 ng/mL. For the same compound, the Cmax ([1]; single 50 mg/m^2 1-h IV infusion, in the presence of rifampin 600 mg daily (Day 10), N=17, read-out: Cmax geometric mean (CV)) was 564 ng/mL, the “CL geometric mean (CV)” value ([1]; plasma clearance, single 50 mg/m^2 IV, in the absence of rifampin (Day 1), N=20) was 33.1 (31.2%) L/h and the “AUClast LS mean ratio (90% CI)” value [1, 9] was 0.785 (0.684–0.901). For the same compound, the “AUC∞ LS mean ratio (90% CI)” value [1, 9] was 0.790 (0.692–0.902), the “Cmax LS mean ratio (90% CI)” value [1, 9] was 0.962 (0.792–1.17) and the “t1/2z mean (SD)” value ([1]; single 50 mg/m^2 IV, in the absence of rifampin (Day 1), N=20) was 7.4 (1.4) h. For the same compound, the “TEAE of hypersensitivity leading to interruption of study drug or permanent withdrawal, patients” value [2] was “Two”, the “TEAE decreased appetite, patients” value [2, 10] was 4 [20%] n [%] and the “TEAE diarrhea, patients” value [2, 10] was 3 [15%] n [%]. The “TEAE fatigue, patients” value [2, 10] was 3 [15%] n [%], the “Drug-related TEAEs, Events” value [2, 11] was 14 and the “Grade ≥ 3 TEAEs, Events” value [2, 11] was 17. The “Grade ≥ 3 drug related TEAEs, Events” value [2, 11] was 3, the “Grade ≥ 3 drug related TEAEs, Patients (%)” value [2, 11] was 3 (15%) n (%) and the “On-study deaths, Events” value [2, 11] was 1. The “Serious TEAEs leading to study drug discontinuation, Events” value [2, 11] was 1, the “Serious TEAEs leading to study drug discontinuation, Patients (%)” value [2, 11] was 1 (5.0) n (%) and the “Serious TEAEs, Events” value [2, 11] was 4. The “Serious TEAEs, Patients (%)” value [2, 11] was 3 (15%) n (%), the “Serious TEAEs, drug related, Events” value [2, 11] was 1 and the “Serious TEAEs, drug related, Patients (%)” value [2, 11] was 1 (5.0) n (%). The “TEAEs leading to study drug discontinuation, Events” value [2, 11] was 1, the “TEAEs leading to study drug discontinuation, Patients (%)” value [2, 11] was 1 (5.0) n (%) and the “TEAEs leading to study drug dose delayed, Events” value [2, 11] was 0. For the same compound, the “TEAEs leading to study drug dose delayed, Patients (%)” value [2, 11] was 0 n (%), the “TEAEs leading to study drug dose interruption, Events” value [2, 11] was 0 and the “TEAEs leading to study drug dose interruption, Patients (%)” value [2, 11] was 0 n (%). The “TEAEs leading to study drug dose reduction, Events” value [2, 11] was 0, the “TEAEs leading to study drug dose reduction, Patients (%)” value [2, 11] was 0 n (%) and the “TEAEs, Events” value [2, 11] was 82. The “TEAEs, Patients (%)” value [2, 11] was 16 (80%) n (%), the “Drug-related TEAEs, Patients (%)” value [2, 12] was 9 (45.0) n (%) and the “Grade ≥ 3 TEAEs, Patients (%)” value [2, 12] was 7 (35.0) n (%). The “Grade ≥ 3 drug related TEAEs, Patients (%)” value [2, 12] was 3 (15.0) n (%), the “On-study deaths, Patients (%)” value [2, 12] was 1 (5.0) n (%) and the “Serious TEAEs, Patients (%)” value [2, 12] was 3 (15.0) n (%). For the same compound, the “TEAEs, Patients (%)” value [2, 12] was 16 (80.0) n (%), the whole-blood-to-plasma ratio [3] was 40 and the PK dose linearity ([4]; dose range 25–278 mg/m^2) was “linear”. For the same compound, the “impact of age, sex, tumor type, mild or moderate renal impairment (creatinine clearance ≥ 30 mL/min) on PK” value [4] was “no impact”, the “inter-patient variability in pevonedistat clearance” value [4] was “approximately 30%” and the “effect of itraconazole on pevonedistat systemic exposure / PK” value [5] was “no clinically relevant effects; also recorded: did not result in clinically meaningful increase”. For the same compound, the “recommended dose for clinical investigation as a single agent” value ([6]; Days 1, 3 and 5 in 21-day cycles) was 50 mg/m^2, the “maximum tolerated dose (MTD)” value ([6]; in combination with azacitidine) was 20 mg/m^2 and the “maximum tolerated dose (MTD)” value ([6]; in combination with carboplatin plus paclitaxel) was 20 mg/m^2. The “maximum tolerated dose (MTD)” value ([6]; in combination with docetaxel) was 25 mg/m^2.

Reference: paper PMC9395450, “Phase 1 study to evaluate the effects of rifampin on pharmacokinetics of pevonedistat, a NEDD8-activating enzyme inhibitor in patients with advanced solid tumors” (Investigational New Drugs, 2022)
